Reference: ChEMBL document CHEMBL5385919, “A Survey of Recently Discovered Naturally Occurring Organohalogen Compounds” (J Nat Prod, 2024)
Converted amounts (≈) assume the structure as drawn.

What was measured:
[1] = system: Escherichia coli; experiment: Antibacterial activity against Escherichia coli assessed as reduction in bacterial growth; format: functional
[2] = biological target: E3 ubiquitin-protein ligase CBL-B (Homo sapiens, UniProt Q13191); experiment: Inhibition of recombinant Cbl-b (unknown origin) in presence of ATP incubated for 60 mins by ELISA analysis
Sequence of E3 ubiquitin-protein ligase CBL-B (Q13191 whole entry): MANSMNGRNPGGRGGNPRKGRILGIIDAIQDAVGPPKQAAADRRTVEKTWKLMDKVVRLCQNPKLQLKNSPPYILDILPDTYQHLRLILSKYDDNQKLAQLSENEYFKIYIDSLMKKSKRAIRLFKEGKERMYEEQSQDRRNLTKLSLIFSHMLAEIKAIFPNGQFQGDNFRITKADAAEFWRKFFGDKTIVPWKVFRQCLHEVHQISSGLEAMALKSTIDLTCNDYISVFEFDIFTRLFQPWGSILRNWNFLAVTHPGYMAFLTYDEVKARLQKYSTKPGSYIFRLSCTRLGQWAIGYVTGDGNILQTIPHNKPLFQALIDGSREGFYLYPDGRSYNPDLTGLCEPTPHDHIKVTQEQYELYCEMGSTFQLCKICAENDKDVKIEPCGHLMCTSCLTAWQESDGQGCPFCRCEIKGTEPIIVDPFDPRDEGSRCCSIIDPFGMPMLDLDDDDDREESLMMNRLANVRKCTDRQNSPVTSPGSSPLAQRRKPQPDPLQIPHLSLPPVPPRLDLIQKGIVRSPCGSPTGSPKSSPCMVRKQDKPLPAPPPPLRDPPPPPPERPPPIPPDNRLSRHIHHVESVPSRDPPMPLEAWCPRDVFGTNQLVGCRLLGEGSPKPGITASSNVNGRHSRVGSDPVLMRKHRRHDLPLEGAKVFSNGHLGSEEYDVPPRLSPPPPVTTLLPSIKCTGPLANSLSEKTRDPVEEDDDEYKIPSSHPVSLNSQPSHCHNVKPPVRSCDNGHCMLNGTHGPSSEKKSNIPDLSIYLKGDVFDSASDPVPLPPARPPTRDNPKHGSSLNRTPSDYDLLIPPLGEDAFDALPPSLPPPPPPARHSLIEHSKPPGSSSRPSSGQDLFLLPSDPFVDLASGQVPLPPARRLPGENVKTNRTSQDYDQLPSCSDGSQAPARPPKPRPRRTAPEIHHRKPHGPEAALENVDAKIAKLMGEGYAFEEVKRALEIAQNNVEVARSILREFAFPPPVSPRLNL

[3] = system: Staphylococcus aureus; experiment: Antibacterial activity against methicillin resistant Staphylococcus aureus assessed as reduction in bacterial growth; format: functional, organism-based
[4] = system: Staphylococcus aureus; experiment: Antibacterial activity against Staphylococcus aureus assessed as reduction in bacterial growth; format: functional
[5] = system: Nannizzia gypsea; experiment: Antifungal activity against Microsporum gypseum assessed as reduction in fungal growth; format: functional
[6] = system: HCT-8; experiment: Cytotoxicity against human HCT-8 cells assessed as inhibition of cell growth incubated for 48 hrs by MTT assay; format: functional, cell-based; details: HCT-8, 48 h
[7] = system: RAW264.7; experiment: Inhibition of LPS-induced NO production in mouse RAW264.7 cells; format: functional, cell-based
[8] = system: KB; experiment: Cytotoxicity against human KB cells assessed as inhibition of cell growth incubated for 48 hrs by MTT assay; format: functional, cell-based
[9] = system: MCF7; experiment: Cytotoxicity against human MCF7 cells assessed as inhibition of cell growth incubated for 48 hrs by MTT assay; format: functional, cell-based; details: MCF7, 48 h
[10] = system: HL-60; experiment: Cytotoxicity against human HL-60 cells assessed as inhibition of cell growth incubated for 48 hrs by MTT assay; format: functional, cell-based; details: HL-60, 48 h
[11] = system: MGC-803; experiment: Cytotoxicity against human MGC-803 cells assessed as inhibition of cell growth incubated for 48 hrs by MTT assay; format: functional, cell-based; details: MGC-803, 48 h
[12] = system: Staphylococcus aureus; experiment: Antibacterial activity against Staphylococcus aureus FDA 209P JC-1 assessed as reduction in bacterial growth; format: functional
[13] = system: Bacillus subtilis; experiment: Antibacterial activity against Bacillus subtilis PCI219 assessed as reduction in bacterial growth; format: functional
[14] = system: P388; experiment: Cytotoxicity against mouse P388 cells assessed as inhibition of cell growth; format: functional, cell-based
[15] = system: Kocuria rhizophila; experiment: Antibacterial activity against Kocuria rhizophila ATCC9341 assessed as reduction in bacterial growth; format: functional
[16] = Inhibition of neuronal excitability in mouse Primary neocortical neuron assessed as reduction in 4-AP-induced SCO amplitude measured for 1 hr by FLIPR assay; format: functional, cell-based
[17] = Inhibition of neuronal excitability in mouse Primary neocortical neuron assessed as reduction in 4-AP-induced SCO frequency measured for 1 hr by FLIPR assay; format: functional, cell-based
[18] = system: A549; experiment: Cytotoxicity against human A549 cells assessed as inhibition of cell growth incubated for 48 hrs by MTT assay; format: functional, cell-based; details: A549, 48 h
[19] = system: MDA-MB-231; experiment: Growth inhibition of human MDA-MB-231 cells assessed inhibition of cell growth; format: functional
[20] = system: Bacillus subtilis; experiment: Antibacterial activity against Bacillus subtilis ATCC 6633 assessed as reduction in bacterial growth; format: functional
[21] = system: HepG2; experiment: Cytotoxicity against human HepG2 cells assessed as inhibition of cell growth; format: functional, cell-based
[22] = system: Trypanosoma brucei rhodesiense; experiment: Antitrypanosomal activity against Trypanosoma brucei rhodesiense IL-1501 assessed as inhibition of cell growth incubated for 69 hrs by AlamarBlue assay; format: functional, organism-based
[23] = system: Plasmodium falciparum; experiment: Antiplasmodial activity against Plasmodium falciparum K1 assessed as reduction in parasite growth; format: functional, organism-based
[24] = system: Bacillus subtilis; experiment: Antibacterial activity against Bacillus subtilis assessed as reduction in bacterial growth; format: functional
[25] = system: HL-60; experiment: Cytotoxicity against human HL-60 cells assessed as inhibition of cell growth; format: functional, cell-based
[26] = system: Aspergillus sydowii; experiment: Antifungal activity against Aspergillus sydowii SCSIO 00305 assessed as inhibition of fungal growth; format: functional, organism-based

O=C1C=Cc2c3c4c(c(O)ccc4c4ccc(O)c1c24)[C@@H](O)[C@H](Cl)[C@@H]3O
MIC [1]: 6.25 µM (≈ 2.3 µg/mL)

Cn1cc(Br)cc1C(=O)NC[C@@H]1[C@@H](CNC(=O)c2ccc(Br)[nH]2)Cc2nc(N)[nH]c2[C@H]1c1c[nH]c(N)n1
IC50 [2]: 33 µM

Cc1cc(O)c2c3c(c(O)cc(OC[C@@H](O)C(C)(C)Cl)c13)C(=O)C2=O
MIC [3]: 12.5 µM

O=C1NC[C@H](c2cc(Br)c(OC[C@H](O)CNC(=O)/C(Cc3cc(Br)c(O)c(Br)c3O)=N\O)c(Br)c2)O1
MIC [4]: 5.2 µM

C=C(CCC=C(C)C)[C@]1(O)CC[C@@](C)(Cl)[C@H](Br)C1
MIC [5]: 8 mg/L (≈ 23.8 µM) | MIC [4]: 15.4 mg/L

C=C(COC(=O)Cc1cc(O)c(O)c(Cl)c1)[C@@]12O[C@@H]1[C@@]1(C)C(=CC2=O)CC[C@@H](O)[C@@H]1C
IC50 [6]: 5.4 µM

CC(=O)/C=C/C1=CC[C@H]2[C@@H](C[C@@H]1C)OC(=O)[C@]2(O)CCl
IC50 [7]: 16 µM

COc1c(Cl)ccc2c(=O)c3c(O)c4c5c(c3oc12)OCO[C@@H]5Cc1c-4c(O)c2c(=O)[nH]c(C)c(Cl)c2c1O
IC50 [8]: 0.008 mg/L (≈ 0.014 µM) | IC50 [9]: 0.008 mg/L (≈ 0.014 µM) | IC50 [10]: 0.008 mg/L (≈ 0.014 µM) | IC50 [11]: 0.008 mg/L (≈ 0.014 µM)

Cc1c(O)cc2c(c1O)C(=O)C1=C(OC(C)(C)[C@H](Cl)C1)C2=O
MIC [12]: 6.25 mg/L (≈ 19.4 µM) | MIC [13]: 6.25 mg/L (≈ 19.4 µM) | IC50 [14]: 9.8 µM | MIC [15]: 6.25 mg/L (≈ 19.4 µM)

CC(C)(O)C(=O)OC[C@](C)(O)[C@H]1OC2=CC[C@@]3(C)[C@@](O)(CC[C@H]4Cc5c([nH]c6cc(Cl)ccc56)[C@@]43C)C2=CC1=O
EC50 [16]: 5.62 µM | EC50 [17]: 4.77 µM

CC(C)=C1C[C@@]2(COC(=O)Cc3cc(O)c(O)c(Cl)c3)C(=CC1=O)CC[C@@H](O)[C@@H]2C
IC50 [18]: 3.2 µM

CCCCC[C@H]1CCC[C@@H](Cl)C[C@@H](OC)c2cc(O)c(c(O[C@@H]3OC[C@@H](O)[C@H](O)[C@H]3O)c2)[C@@H](CCCC)CCC[C@@H](Cl)C[C@@H](OC)c2cc(O)c1c(O)c2
GI50 [19]: 0.72 µM

CCCC[C@H]1CCCCC[C@@H](O)c2cc(O)c(c(O)c2)[C@@H](CCCC)CCC[C@@H](Cl)C[C@@H](OC)c2cc(O)c1c(O)c2
GI50 [19]: 0.72 µM

C=C(C)[C@@H](O)CC/C(C)=C1\CC[C@](C)(Cl)[C@@H](Br)C1
MIC [5]: 4 mg/L (≈ 11.9 µM) | MIC [4]: 26.8 mg/L

CO[C@H]1C[C@@H](O)[C@H](OC)c2oc3c4c5c(c(O)c3c(=O)c21)-c1c(cc2c(Cl)c(C)[nH]c(=O)c2c1O)C[C@H]5OCO4
MIC [12]: 0.049 mg/L (≈ 0.086 µM) | MIC [20]: 0.098 mg/L (≈ 0.172 µM)

COc1c(Br)cc(C/C(=N/O)C(=O)NC[C@@H](O)COc2c(Br)cc([C@H]3CNC(=O)O3)cc2Br)c(O)c1Br
MIC [4]: 5.2 µM

C=C1C[C@H](O)[C@H](Br)C(C)(C)[C@]12CC=C(COC)CC2
IC50 [21]: 4.08 µM

CCCC[C@H]1CCC[C@@H](Cl)CCc2cc(O)c(c(O)c2)[C@@H](CCCC)CCC[C@@H](Cl)C[C@@H](OC)c2cc(O)c1c(O)c2
GI50 [19]: 0.72 µM

Oc1cc(Br)cc(Br)c1Oc1cc(Br)c(Br)c(Br)c1Oc1ccc(Br)cc1Br
IC50 [22]: 1.2 µM

CC[C@H](C)[C@H]1O[C@@H](CC(C)=O)O[C@@]1(C)/C=C/C1=CC2=C(Cl)C(=O)[C@](C)(O)[C@H](OC(C)=O)[C@H]2CO1
MIC [3]: 12.5 mg/L

Oc1cc(Br)cc(Br)c1Oc1cc(Br)c(Br)c(Br)c1Oc1ccc(Br)cc1I
IC50 [22]: 0.7 µM

Cc1cc(O)cc2c1[C@@H]1O[C@@](C)(Cc3cc4c(c(O)c31)C(=O)c1c(O)cc(O)c(Cl)c1C4(C)C)O2
IC50 [23]: 4.49 µM | MIC [4]: 0.8 mg/L | MIC [24]: 0.4 mg/L (≈ 0.808 µM)

CC(C)/C1=C/[C@H](O)[C@](C)(O)CC[C@H](Cl)[C@@]2(C)CC[C@H](O2)[C@](C)(O)CC1
IC50 [25]: 3.67 µM

COc1cc2oc3cc4c(c(OC)c3c(=O)c2c(OC)c1Cl)[C@@H]1C=CO[C@@H]1O4
IC50 [26]: 2.9 µM
